Patent publication US20250241965A1, “METHOD TO IMPROVE CELL VIABILITY OF CARDIOMYOCYTES” (UNIVERSITY OF WASHINGTON, priority 2022, published 2025)

How the values were obtained:
[1] = tested on: pluripotent stem cells (PSCs) differentiating to cardiomyocytes; assay: Cell yield during differentiation of pluripotent stem cells to cardiomyocytes in suspension culture; assay type: cell-based; settings: for cell counts (cells/mL) during differentiation, FIG. 4: versus CBP conditions
Procedure: FIG. 1A depicts the timeline, base media, media supplements, small molecules for the differentiation of pluripotent stem cells to cardiomyocytes. Addition of CHIR, Wnt agonist, occurs at Day 3 of differentiation, while the Wnt antagonist Wiki, is added either 48 or 44 hours after CHIR addition. The timing from CHIR to WIKI addition is optimized for each cell line and/or reagent change to most efficiently induce cardiomyocye differentiation.
(§1) FIG. 3 (top) illustrates the current best practice (CBP) differentiation methodology including timeline, base media, media supplements and the addition of small molecules. FIG. 3 (bottom) the experimental set up to test three different methodologies designed to improve the cell yield in comparison to CBP (1). To improve the total cell yield, adding an additional media change on the day just prior to the initiation of significant cell loss (2), or the addition of ROCK inhibitor at the points of small molecule addition (CHIR or WIKI, respectively) were tested. To monitor for the fate of cells in the experiment, the cultures were monitored for cell counts (both in single cell suspension and in aggregates), glucose, lactate, and pH using a Blood Gas Analyzer (BGA); apoptosis was analyzed by AnnexinV staining; additionally, mesoderm formation was monitored by flow cytometry for CD56 and PDGFRa to determine if the addition of ROCK inhibitor changed the developmental trajectory of the cells.
FIG. 4 (top) once again illustrates the experimental design as described in […], for reference. FIG. 4 (bottom) indicates the cell counts at multiple time-points from each condition during the differentiation of experiment #19. 19-1 is CBP conditions, 19-2 is media change at day 6 conditions (including the addition of Wiki 5 uM), 19-3 is conditions that received ROCK inhibitor at the time of small molecule addition. At day 6 of differentiation cells numbers in condition 19-3 were elevated to the point of needing to double the media volume and therefore cells were split into 19-3A and 19-3B.
involves multiple steps of PSC expansion and differentiation to the desired lineage. As presented here PSCs are thawed from a suspension PSC bank (PMID: 26318718) and aggregated in suspension culture, with the addition of the ROCK inhibitor Y-27632, shown to permit survival of dissociated PSCs (PMID: 17529971). Following expansion, the cells are induced to differentiate to mesoderm and then cardiomyocytes by modulating Wnt signaling using CHIR99021 to induce mesoderm (PMID: 23257984), followed small molecule Wnt inhibitor, WIKI4 (PMID: 23227175) to specify mesoderm to the cardiomyocyte lineage (FIG. 3).
loss during the addition of CHIR99021 and WIKI4. […] Additionally, at differentiation day 13, the culture with the addition of Y-27632 yielded nearly 4× more cardiomyocytes than cultures without. Subsequently Y-27632 was added to all cultures during the differentiation (FIG. 4).

[2] = tested on: pluripotent stem cells (PSCs) differentiating to cardiomyocytes; assay: Apoptosis by AnnexinV staining (flow cytometry) during cardiomyocyte differentiation; assay type: cell-based
Source text: as §1
FIG. 6 illustrates that apoptosis correlates with the cell loss detected in CBP conditions (19-1) and media change (including Wiki) conditions (19-2), in comparison to ROCK inhibitor conditions (19-3). This illustration also includes an additional experimental set which includes addition of ROCK inhibitor at time-points of small molecule addition (20-1), or CBP conditions (20-2). […]

Row | Compound | cell loss by end of culture, FIG. 1B ([1]; additional WIKI4 on day 6 of differentiation, 8 uM CHIR) | cell counts (cells/mL) during differentiation, FIG. 4 ([1]; condition 19-2: media change at day 6 including addition of Wiki 5 uM) | cells/mL in the final culture, FIG. 1B ([1]; media change with no additional WIKI4 on day 6, Day 20 of differentiation) | AnnexinV staining (apoptosis), FIG. 6 ([2]; condition 19-2: media change at day 6 including Wiki) | yield of pre-cardiomyocytes ([1]; Y-27632 added in combination with CHIR99021 and WIKI4, measured at day 6 of differentiation (4.7E5 cells/mL without)) | cell counts (cells/mL) during differentiation, FIG. 4 ([1]; condition 19-3: ROCK inhibitor at the time of small molecule (CHIR, WIKI) addition) | cardiomyocyte yield relative to cultures without Y-27632 ([1]; differentiation day 13) | yield of pre-cardiomyocytes relative to culture without Y-27632 ([1]; in combination with CHIR99021 and WIKI4, day 6 of differentiation) | AnnexinV staining (apoptosis), FIG. 6 ([2]; condition 19-3: ROCK inhibitor at time-points of small molecule addition)
1 | COc1ccc(-n2c(SCCCN3C(=O)c4cccc5cccc(c45)C3=O)nnc2-c2ccncc2)cc1 [WIKI4] | extensive loss of cells | even more rapid loss of cells | roughly 8E5 cells/mL | high |  |  |  |  | 
2 | C[C@@H](N)[C@H]1CC[C@H](C(=O)Nc2ccncc2)CC1 [Y-27632] |  |  |  |  | 1.1E6 cells/mL | significantly higher cell numbers | ~4 × | greater than double the yield | low
